Laboratory results: US20090082367A1, “TRIAZOLE DERIVATIVE OR A SALT THEREOF” (ASTELLAS PHARMA INC., priority 2006, published 2009)

Assays:
[1] = target: T1, human recombinant 11β-HSD2 (Homo sapiens, UniProt P80365); assay: Measuring test of human 11β-HSD2-inhibitory activity (HTRF cortisol detection); type: biochemical; conditions: human recombinant 11β-HSD2, 200 nM cortisol, 200 μM NAD, pH 8.0, 37° C. 2 hours
T1 sequence (P80365 1-405): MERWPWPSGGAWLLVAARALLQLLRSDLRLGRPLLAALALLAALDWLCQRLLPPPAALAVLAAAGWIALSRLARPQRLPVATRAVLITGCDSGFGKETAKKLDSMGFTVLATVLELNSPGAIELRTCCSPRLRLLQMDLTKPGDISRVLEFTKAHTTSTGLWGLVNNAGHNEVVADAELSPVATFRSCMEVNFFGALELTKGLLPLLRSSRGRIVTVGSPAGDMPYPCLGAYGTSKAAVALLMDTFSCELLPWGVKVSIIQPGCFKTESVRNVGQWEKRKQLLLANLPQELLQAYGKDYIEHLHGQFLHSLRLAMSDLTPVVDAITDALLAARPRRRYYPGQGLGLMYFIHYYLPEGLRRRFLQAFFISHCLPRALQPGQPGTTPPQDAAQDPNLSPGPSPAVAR
Description: Measurement of the 11β-HSD2 activity was carried out by the same method of the 11β-HSD1 activity measurement, except for the enzyme reaction conditions. The enzyme reaction was carried out by adding the compound to be tested having varied concentration to a reaction liquid consisting of 40 mM Tris-HCl buffer (pH 8.0), 200 nM cortisol, 200 μM nicotinamide adenine dinucleotide (NAD) and human recombinant 11β-HSD2, and then incubating at 37° C. for 2 hours (10 μl/well).
(§1) The measured result was calculated by averaging the values of 3 wells of the same condition. The ratio when DMSO was added instead of the compound to be tested was regarded as 0% and the ratio when 11β-HSD1 or 11β-HSD2 was not added was regarded as 100%, thereby calculating 50% inhibition concentration of the compound to be tested as IC50 of the compound inhibitory activity.

[2] = target: T2, human recombinant 11β-HSD1 (Homo sapiens, UniProt P28845); assay: Measuring test of human 11β-HSD1-inhibitory activity (HTRF cortisol detection); type: biochemical; conditions: human recombinant 11β-HSD1, 20 nM cortisone, 40 μM NADPH, pH 6.6, room temperature 1 hour
T2 construct: made in house
T2 sequence (P28845 whole entry): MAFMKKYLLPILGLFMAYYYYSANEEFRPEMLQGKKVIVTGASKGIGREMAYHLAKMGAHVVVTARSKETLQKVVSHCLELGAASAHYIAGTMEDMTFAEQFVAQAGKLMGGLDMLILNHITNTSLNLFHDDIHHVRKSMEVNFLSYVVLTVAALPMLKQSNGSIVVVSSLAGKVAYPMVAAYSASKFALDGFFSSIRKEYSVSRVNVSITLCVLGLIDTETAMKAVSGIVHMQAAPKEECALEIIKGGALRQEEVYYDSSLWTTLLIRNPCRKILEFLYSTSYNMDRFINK
Description: The procedure for measuring 11β-HSD1-inhibitory activity is as follows. In this connection, the enzyme reaction and measurement were carried out using a 384-well plate. The enzyme was prepared in accordance with a reference (Walker E. A. et al., Journal of Biological Chemistry, 2001, vol. 276, p. 21343-21350). The reaction was carried out by adding the compound to be tested having varied concentration to a reaction liquid consisting of 10 mM phosphate buffer (pH 6.6), 20 nM cortisone, 40 μM reduced nicotinamide adenine dinucleotide phosphate (NADPH) and human recombinant 11β-HSD1, and then incubating at room temperature for 1 hour (10 μl/well). The compound to be tested was prepared by dissolving in dimethyl sulfoxide (DMSO) to a DMSO concentration of 1% in the reaction liquid. After the enzyme reaction, the enzyme inhibitory activity was measured by detecting cortisol using a homogeneous time-resolved fluorescence method (HTRF). Each of the XL-665-labeled cortisol containing 400 μM carbenoxolone and cryptate-labeled cortisol antibody (CIS bio international) was added in 5 μl/well portions and incubated at room temperature for 2 hours, and then the fluorescence intensity was measured using a fluorophotometer (trade name: Discovery, Perkin Elmer), and the enzyme inhibitory activity was calculated from the fluorescence intensity ratio at two wavelengths (665 nm/620 nm).
as §1

[3] = tested on: ob/ob male mice; assay: Ob/ob mouse blood glucose-lowering test; type: in vivo; conditions: oral 10 mg/kg bid for 9 days, non-fasting, 12 hours after final administration, n=6
Description: (§2) Using 6% 2-hydroxypropyl-β-cyclodextrin as the solvent, a compound liquid was prepared. Blood glucose values were measured under non-fasting using ob/ob male mice of 9 weeks of age (blood glucose value, 300 mg/dl or more), and then arrangement into groups was carried out at random in such a manner that their blood glucose values became uniform. The compound to be tested was repeatedly orally administered (10 mg/kg, bid) twice a day for 9 days, and blood glucose values after 12 hours of the final administration were measured (n=6). The blood glucose value was measured by carrying out colorimetric determination of the amount of glucose (mg/dl) in heparin blood plasma obtained by collecting blood in a heparin-coated glass capillary and subsequently centrifuging it.

[4] = tested on: ob/ob male mice; assay: Ob/ob mouse triglyceride-lowering test; type: in vivo; conditions: oral 10 mg/kg bid for 9 days, non-fasting, 12 hours after final administration, n=6
Description: as §2, with “Triglyceride” for “Blood glucose”, “age,” for “age (blood glucose value, 300 mg/dl or more),”, “triglyceride” for “blood glucose”, “Triglyceride” for “The blood glucose value”, “triglyceride” for “glucose”

IC50 [1] [µM]	IC50 [2] [µM]	SMILES	blood glucose-lowering action [3] [%]	triglyceride-lowering action [4] [%]
> 10	0.012	CC(C)(c1cc(Br)cs1)c1nnc(C2CC2)n1C1CC1 [Example 77]	–	–
> 10	0.019	CC(C)(c1ccsc1)c1nnc(C2CC2)n1C1CC1 [Example 172]	27	–
> 3	0.0079	CC(C)(c1ccc(Br)s1)c1nnc(C2CC2)n1C1CC1 [Example 3, 3-[1-(5-bromo-2-thienyl)-1-methylethyl]-4,5-dicyclopropyl-4H-1,2,4-triazole]	27	50
> 10	0.024	CC(C)(c1ccc(C(F)(F)F)s1)c1nnc(C2CC2)n1C1CC1 [Example 169]	–	–
> 10	0.012	CC(C)(c1ccsc1)c1nnc(C2CCC2)n1C1CC1 [Example 173]	–	–
> 3	0.0047	CC(C)(c1sc(C(F)(F)F)cc1F)c1nnc(C2CC2)n1C1CC1 [Example 280]	35	42

The remaining lines, values behind:

SMILES	IC50 [1] [µM]	IC50 [2] [µM]	blood glucose-lowering action [3] [%]	triglyceride-lowering action [4] [%]
CC(C)(c1ccc(Br)s1)c1nnc(C2CC2)n1CCc1c(F)cccc1F [Example 167]	> 30	0.07	24	–
Brc1ccn(C2(c3nnc(C4CC4)n3C3CC3)CCC2)c1 [Example 213]	> 10	0.041	–	–
CN(C1CCC1)C(C)(C)c1nnc(C2CC2)n1C1CC1 [Example 57]	> 30	0.07	–	–
CC(C)(c1cccc(Cl)n1)c1nnc(C2CC2)n1CCc1ccccc1 [Example 85]	> 10	0.034	–	–
CC(C)(c1nnc(C2CC2)n1C1CC1)n1cccc1Cl [Example 9, 3-[1-(2-chloro-1H-pyrrol-1-yl)-1-methylethyl]-4,5-dicyclopropyl-4H-1,2,4-triazole]	> 30	0.062	–	–
Fc1ccc(CCn2c(C3CC3)nnc2C2(c3ccccn3)CCC2)cc1 [Example 198]	> 10	0.025	–	–
Cn1c(C2(C)CC2)nnc1C(C)(C)c1ccc(Cl)s1 [Example 283]	> 3	0.0024	–	–
CC(C)(c1ccccn1)c1nnc(C2CC2)n1CCc1c(F)cccc1F [Example 154]	> 30	0.038	21	–
Cn1c(C(C)(C)C)nnc1C(C)(C)c1ccc(Cl)s1 [Example 281]	> 3	0.0052	–	–
